Data as given in patent EP4585587A1, “PROPIONIC ACID DERIVATIVE AND USE THEREOF IN MEDICINE” (priority 2022, dated 2024).
Where a name gives a salt, the structure may show the parent alone. Read-outs that look alike come from different tables or passages of the source.

Columns and labels:
integrin α4β1 = assay: Integrin α4β1-mediated cell adhesion assay (Jurkat cells on VCAM); format: cell-based
Experimental: VCAM was formulated into a final concentration of 0.5 µg/ml with a coating buffer, 50 µl of the solution was transferred to a 96-well plate, and the plate was coated with same at 4°C overnight. The plate was washed with coating buffer three times, then 150 µl of a blocking solution (coating buffer containing 1% BSA) was added, and the plate was blocked at 37°C for 1 h. Jurkat cells were collected, washed twice using DPBS buffer, and then resuspended to 4 × 10^6 cells/ml with an action buffer. 50 µl of the cell suspension was transferred to a 96-well plate so that the cell density reached 2 × 10^5 cells/well. Then 1 µl of the test compound at different concentration or DMSO was added and the plate was incubated at 37°C for 1 h. The plate was washed with coating buffer to remove non-adherent cells. 50 µl of a substrate (4-nitrophenyl-N-acetyl-β-D-glucosaminide) was added and the plate was incubated at 37°C for 2 h. Finally, 90 µl of a termination solution (50 mM glycine and 5 mM EDTA, pH 10.4) was added. The OD value of the plate was read at 405 nm. • Coating buffer: DMEM+ 20 mM HEPES+ 0.4 mM MnCl2 • Action buffer: DMEM+ 20 mM HEPES+ 0.1% BSA+0.4 mM MnCl2 • DMEM: dulbecco's modified eagle medium; • HEPES: 2-[4-(2-hydroxyethyl)piperazin-1-yl]ethanesulfonic acid Table 1 Results of effects of compounds on α4β7- and α4β1-mediated cell adhesion

integrin α4β7 = target: T1, integrin α4β7 (Homo sapiens, UniProt P13612+P26010); assay: Integrin α4β7 cell adhesion assay (RPMI8866 cells on MAdCAM-1); format: cell-based
T1 sequence (P13612 34-1032): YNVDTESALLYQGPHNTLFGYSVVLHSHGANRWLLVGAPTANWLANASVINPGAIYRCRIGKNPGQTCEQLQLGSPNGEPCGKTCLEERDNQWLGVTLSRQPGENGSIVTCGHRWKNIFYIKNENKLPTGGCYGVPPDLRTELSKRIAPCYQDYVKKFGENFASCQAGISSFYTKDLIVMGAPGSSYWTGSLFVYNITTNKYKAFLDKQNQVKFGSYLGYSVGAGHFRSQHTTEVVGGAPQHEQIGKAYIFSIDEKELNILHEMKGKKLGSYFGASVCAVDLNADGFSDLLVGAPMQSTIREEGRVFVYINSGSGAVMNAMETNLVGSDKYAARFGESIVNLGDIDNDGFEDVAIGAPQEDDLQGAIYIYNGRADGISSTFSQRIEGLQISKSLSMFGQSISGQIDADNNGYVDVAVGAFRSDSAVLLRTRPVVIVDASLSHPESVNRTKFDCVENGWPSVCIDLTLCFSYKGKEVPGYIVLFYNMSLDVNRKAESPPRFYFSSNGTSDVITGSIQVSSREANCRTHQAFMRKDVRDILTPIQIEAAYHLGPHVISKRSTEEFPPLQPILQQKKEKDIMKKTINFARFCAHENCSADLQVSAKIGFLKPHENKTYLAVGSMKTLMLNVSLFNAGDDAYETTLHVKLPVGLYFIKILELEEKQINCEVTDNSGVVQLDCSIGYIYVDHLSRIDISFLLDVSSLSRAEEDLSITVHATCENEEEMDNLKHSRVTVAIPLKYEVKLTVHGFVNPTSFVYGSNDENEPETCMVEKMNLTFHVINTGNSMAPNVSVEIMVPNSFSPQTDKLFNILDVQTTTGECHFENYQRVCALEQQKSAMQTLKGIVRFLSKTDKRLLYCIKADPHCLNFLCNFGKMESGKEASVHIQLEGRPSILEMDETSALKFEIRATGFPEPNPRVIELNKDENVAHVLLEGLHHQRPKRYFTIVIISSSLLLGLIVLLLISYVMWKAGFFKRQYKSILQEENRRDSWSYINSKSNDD
T1 sequence (P26010 20-798): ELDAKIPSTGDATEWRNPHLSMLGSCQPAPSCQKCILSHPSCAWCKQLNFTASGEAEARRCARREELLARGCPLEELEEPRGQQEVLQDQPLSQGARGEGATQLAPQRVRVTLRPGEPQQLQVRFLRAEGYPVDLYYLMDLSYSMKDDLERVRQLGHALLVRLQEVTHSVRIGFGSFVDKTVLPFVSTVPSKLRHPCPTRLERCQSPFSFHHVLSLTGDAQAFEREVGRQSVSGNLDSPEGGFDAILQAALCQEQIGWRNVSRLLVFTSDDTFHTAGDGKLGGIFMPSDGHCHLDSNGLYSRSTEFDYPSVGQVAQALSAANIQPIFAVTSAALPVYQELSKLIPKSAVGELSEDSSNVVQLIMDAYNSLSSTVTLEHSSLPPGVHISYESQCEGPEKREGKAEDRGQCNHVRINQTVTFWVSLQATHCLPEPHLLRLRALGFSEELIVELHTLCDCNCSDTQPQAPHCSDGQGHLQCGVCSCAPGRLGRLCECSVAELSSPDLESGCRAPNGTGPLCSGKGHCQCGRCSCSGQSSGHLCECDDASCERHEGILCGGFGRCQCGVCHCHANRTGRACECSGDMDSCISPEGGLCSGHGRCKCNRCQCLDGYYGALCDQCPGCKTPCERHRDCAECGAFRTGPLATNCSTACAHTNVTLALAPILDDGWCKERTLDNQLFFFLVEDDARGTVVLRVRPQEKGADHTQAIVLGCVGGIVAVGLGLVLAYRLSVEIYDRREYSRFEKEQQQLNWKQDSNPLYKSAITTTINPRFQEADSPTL
Experimental: MAdCAM-1 was formulated with TBS buffer to a final concentration of 2 µg/ml, 50 µl of the solution was transferred to a 96-well plate, and the plate was coated with same at 4°C overnight. The plate was washed with TBS buffer three times, then 150 µl of a blocking solution (TBS buffer containing 1% BSA) was added, and the plate was blocked at 37°C for 1 h. […] 50 µl of the cell suspension was transferred to a 96-well plate so that the cell density reached 2×10^5 cells/well. Then 1 µl of the compound at different concentrations or DMSO was added and the plate was incubated at 37°C for 1 h or 2 h. The plate was washed with TBS buffer to remove non-adherent cells. 50 µl of a substrate (4-nitrophenyl-N-acetyl-β-D-glucosaminide) was added and the plate was incubated at 37°C for 2 h. […] The IC50 value was calculated using GraphPad Prism 6 software.

[1] = Jurkat cells, VCAM coated plate; read-out: Jurkat (α4β1)/VCAM-1 IC50
[2] = selectivity ratio of Jurkat (α4β1)/VCAM-1 IC50 to RPMI-8866 (α4β7)/MadCAM-1 IC50
[3] = RPMI8866 cells, MAdCAM-1 coated plate, numeric value or bound, read-out: RPMI-8866 (α4β7)/MadCAM-1 IC50
[4] = RPMI8866 cells, MAdCAM-1 coated plate, reported as class symbol, read-out: RPMI-8866 (α4β7)/MadCAM-1 IC50

Row | SMILES | IC50 (integrin α4β1; [1]) [nM] | α4β1/α4β7 (integrin α4β1; [2]) | IC50 (integrin α4β7; [4]) [nM] | also measured
1 | CC#Cc1cc(-c2c(C)cccc2C)c(F)c(C(CC(=O)O)NC(=O)[C@H](CC(C)C)n2cc(CCC3CCCN3C)c(C(F)(F)F)cc2=O)c1F (stereo partly shown) [Trifluoroacetate salt of compound 29-2] | > 200 | 292 | – | IC50 (integrin α4β7; [3]): < 1 nM
2 | CC#Cc1cc(-c2c(C)cccc2C)c(F)c(C(CC(=O)O)NC(=O)[C@@H](CC(C)C)n2cc(CCN(CC)CC)c(C(F)(F)F)cc2=O)c1F (stereo partly shown) [Trifluoroacetate salt of compound 12-2] | > 100 | 354 | – | IC50 (integrin α4β7; [3]): < 0.5 nM
3 | Cc1cc(F)cc(C)c1-c1cc(C(CC(=O)O)NC(=O)C(CC(C)C)n2cc(CC3CCN(C(C)C)CC3)c(C(F)(F)F)cc2=O)cc2c1CCC2 (stereo not shown) [Trifluoroacetate salt of compound 22-2] | – | 307 | – | –
4 | Cc1cc(F)cc(C)c1-c1c(F)c(C(CC(=O)O)NC(=O)[C@H](CC(C)C)n2cc(CC3CN(C(C)C)C3)c(C(F)(F)F)cc2=O)c(F)c2c1CCC2 (stereo partly shown) [Trifluoroacetate salt of compound 32-2] | > 100 | 220 | – | IC50 (integrin α4β7; [3]): < 1 nM
5 | CC#Cc1cc(-c2c(C)cccc2C)c(F)c(C(CC(=O)O)NC(=O)C(CC(C)C)n2cc(CCN(C)CC3CC3(F)F)c(C(F)(F)F)cc2=O)c1F (single isomer, unassigned) [Compound 7-2] | > 500 | 182 | < 10 | –
6 | CC#Cc1cc(-c2c(C)cccc2C)c(F)c(C(CC(=O)O)NC(=O)C(CC(C)C)n2cc(CCC3CCN(C)C3)c(C(F)(F)F)cc2=O)c1F (single isomer, unassigned) [Trifluoroacetate salt of compound 27-2] | > 100 | 133 | < 10 | –
7 | Cc1cc(F)cc(C)c1-c1cc(C(CC(=O)O)NC(=O)C(CC(C)C)n2cc(CCN(C)CC3CC3(F)F)c(C(F)(F)F)cc2=O)cc2c1CCC2 (single isomer, unassigned) [Compound 1-2] | – | >50 | < 10 | –
8 | COc1cc(C)c(-c2c(F)c(C(CC(=O)O)NC(=O)C(CC(C)C)n3cc(CCN(C)C)c(C(F)(F)F)cc3=O)c(F)c3c2CCC3)c(C)c1 (single isomer, unassigned) [Trifluoroacetate salt of compound 21-2] | – | 1586 | – | –
9 | Cc1ccc(F)c(C)c1-c1c(F)c(C(CC(=O)O)NC(=O)[C@H](CC(C)C)n2cc(CCN(C)C)c(C(F)(F)F)cc2=O)c(F)c2c1CCC2 (stereo partly shown) [Trifluoroacetate salt of compound 48-2] | – | – | – | IC50 (integrin α4β7; [3]): < 1 nM
10 | COc1cc(C)c(-c2c(F)c(C(CC(=O)O)NC(=O)C(CC(C)C)n3cc(CCN(C)C)c(C(F)(F)F)cc3=O)c(F)c3c2CCC3)c(C)c1 (stereo not shown) [Compound 21-A] | – | 119 | – | –
11 | CC#Cc1cc(-c2c(C)cccc2C)c(F)c(C(CC(=O)O)NC(=O)[C@H](CC(C)C)n2cc(CCN3CCC4(CC4)C3)c(C(F)(F)F)cc2=O)c1F (single isomer, unassigned) [Compound 6-2] | – | – | < 10 | –
12 | COc1cc(C)c(-c2c(F)c(C(CC(=O)O)NC(=O)C(CC(C)C)n3cc(CCN(C)C)c(C(F)(F)F)cc3=O)c(F)c3c2CCC3)c(C)c1 (single isomer, unassigned) [Compound 39-2] | – | 213 | – | IC50 (integrin α4β1; read-out: Jurkat (α4β1)/VCAM-1 IC50; Jurkat cells, VCAM coated plate): > 500 nM; IC50 (integrin α4β7): < 10 nM
13 | Cc1cc(F)cc(C)c1-c1c(F)c(C(CC(=O)O)NC(=O)[C@H](CC(C)C)n2cc(CC3CCN(C4CC4)CC3)c(C(F)(F)F)cc2=O)c(F)c2c1CCC2 (single isomer, unassigned) [Compound 24-2] | – | – | < 10 | –
14 | C#CC1CN(CCc2cn(C(CC(C)C)C(=O)NC(CC(=O)O)c3cc4c(c(-c5c(C)cc(F)cc5C)c3)CCC4)c(=O)cc2C(F)(F)F)C1 (single isomer, unassigned) [Compound 3-2] | – | – | < 10 | –
15 | CC#Cc1cc(-c2c(C)cccc2C)c(F)c(C(CC(=O)O)NC(=O)C(CC(C)C)n2cc(CC3CN(CC4CC4)C3)c(C(F)(F)F)cc2=O)c1F (single isomer, unassigned) [Trifluoroacetate salt of compound 19-2] | > 500 | 323 | < 10 | –
16 | Cc1cc(F)cc(C)c1-c1c(F)c(C(CC(=O)O)NC(=O)[C@H](CC(C)C)n2cc(CCC3CCCN3C)c(C(F)(F)F)cc2=O)c(F)c2c1CCC2 (single isomer, unassigned) [Trifluoroacetate salt of compound 28-2] | – | 130 | < 10 | –
17 | COc1ccc(C)c(-c2c(F)c(C(CC(=O)O)NC(=O)[C@H](CC(C)C)n3cc(CCN(C)C)c(C(F)(F)F)cc3=O)c(F)c3c2CCC3)c1C (single isomer, unassigned) [Compound 50-2] | – | – | < 10 | –
18 | Cc1cc(F)cc(C)c1-c1cc(C(CC(=O)O)NC(=O)[C@H](CC(C)C)n2cc(CC3CN(CC4CC4)C3)c(C(F)(F)F)cc2=O)cc2c1CCC2 (stereo partly shown) [Trifluoroacetate salt of compound 15-2] | > 100 | 272 | – | IC50 (integrin α4β7; [3]): < 1 nM
19 | CC#Cc1cc(-c2c(C)cccc2C)c(F)c(C(CC(=O)O)NC(=O)C(CC(C)C)n2cc(CC3CCN(C(C)C)CC3)c(C(F)(F)F)cc2=O)c1F (single isomer, unassigned) [Trifluoroacetate salt of compound 23-2] | > 500 | 310 | < 10 | –
20 | Cc1cc(F)cc(C)c1-c1c(F)c(C(CC(=O)O)NC(=O)C(CC(C)C)n2cc(CCC3CCN(C)C3)c(C(F)(F)F)cc2=O)c(F)c2c1CCC2 (stereo not shown) [Trifluoroacetate salt of compound 26-2] | – | 177 | – | –
